Experimental data: patent EP0638079B1, “DEAZAAMINOPTERINS FOR TREATMENT OF INFLAMMATION” (SRI INTERNATIONAL, priority 1992, dated 1993)

Columns and labels:
S. faecium = settings: folate dependent bacteria; cited from earlier work
L. casei = settings: folate dependent bacteria; cited from earlier work
[1] = system: human liver cell line (Chang liver)
DBA/1 mice = experiment: Type II collagen arthritis mouse model (visual inflammation, rear paw swelling); type: in vivo; settings: for No Mice on day indicated (visual evidence of inflammation), Day 30 / No Mice on day indicated (visual evidence of inflammation), Day 37 / No Mice on day indicated (visual evidence of inflammation), Day 44 / Ave. thickness of rear paws (mm) over days 30-44, Treated: Table IIA; for No Mice on day indicated (visual evidence of inflammation), Day 30 / No Mice on day indicated (visual evidence of inflammation), Day 37 / No Mice on day indicated (visual evidence of inflammation), Day 44 / No mice affected on day indicated (visual evidence of inflammation), Day 30 / No mice affected on day indicated (visual evidence of inflammation), Day 37 / No mice affected on day indicated (visual evidence of inflammation), Day 44: affected mice/mice in group; for No Mice on day indicated (visual evidence of inflammation), Day 30: dose (mg/kg) per compound as in Dose column; for No Mice on day indicated (visual evidence of inflammation), Day 37 / No Mice on day indicated (visual evidence of inflammation), Day 44 / No mice affected on day indicated (visual evidence of inflammation), Day 30: dose per compound as in Dose column; for Avg. thickness of rear paws (mm) over days 30-44, Treated / No mice affected on day indicated (visual evidence of inflammation), Day 30 / No mice affected on day indicated (visual evidence of inflammation), Day 37 / No mice affected on day indicated (visual evidence of inflammation), Day 44: Table IIB; for Avg. thickness of rear paws (mm) over days 30-44, Treated / Ave. thickness of rear paws (mm) over days 30-44, Treated: caliper
Excerpt: The following data illustrate administration to mice of several deazaaminopterin compounds of the invention and methotrexate in the evaluation of anti-inflammatory activity. The data are presented as two separate observations, the visually observed presence of inflammation in the mouse, and the caliper-measured degree of swelling of the rear paws of the mouse.
The efficacy evaluation used a mouse model of inflammatory disease that occurs in response to an antigenic challenge with Type II collagen [J. S. Courtenay et al., Nature, 283, 666-668 (1980)].
The fundamental aspects of the model allow it to serve as a representative presentation of human disease. The parallels between the known aspects of the mouse model and rheumatoid arthritis include a humoral response in which antibodies are produced to an antigen that is present in the joint tissue and the antigenic challenge is accompanied by cell-mediated aspects of immunity. The resultant inflammation of the joint tissue yields facets of periostitis, synovial lining hyperplasia, degradation of bone and cartilage and pannus and new bone formation.
The basic elements of the model included the immunization of DBA/1 mice with a suspension of fetal bovine Type II collagen (1 mg/ml) prepared in complete Freund's adjuvant. The primary injection was given using 0.1 ml of the collagen emulsion giving a total of 0.1 mg of Type II collagen per mouse. The animals were then given a booster injection of Type II collagen (100 µg in 0.01 M acetic acid ) on day 21 by intraperitoneal injection.
Typically, in this model the untreated positive control animals have an incidence of arthritis ranging from 90 to 100% of injected animals at day 44.
The effect of methotrexate and test compounds on the extent of inflammation was determined by direct analysis of paw swelling using caliper measurements. The results are presented in Table IIA, and show a direct correlation between the decrease in the number of animals having disease and a decrease in the extent of inflammation, as determined by paw swelling. Table IIA […]

L1210 = settings: against L1210 in BDF1 mice; cited from earlier work
[2] = system: L1210 murine leukemia cells; settings: cited from earlier work
[3] = target: T1, bovine liver dihydrofolate reductase (Bos taurus, UniProt P00376); settings: cited from earlier work
T1 construct: host or cells: bovine liver
T1 sequence (P00376 1-187): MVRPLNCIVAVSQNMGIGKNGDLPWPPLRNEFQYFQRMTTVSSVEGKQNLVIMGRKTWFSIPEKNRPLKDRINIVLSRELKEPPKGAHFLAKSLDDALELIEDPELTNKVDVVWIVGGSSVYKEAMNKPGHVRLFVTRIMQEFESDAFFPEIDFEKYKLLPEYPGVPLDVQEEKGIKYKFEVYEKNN

P388 leukemia = settings: against P388 leukemia in BDF1 mice; cited from earlier work
[4] = 30 day measurement (first value)
[5] = 44 day measurement (second value)

Row | SMILES | Ratio Of Cytotoxic Potency Versus Methotrexate For Inhibition Of Human Liver Cell Growth In Culture [1] | No Mice on day indicated (visual evidence of inflammation), Day 30 (DBA/1 mice) | No Mice on day indicated (visual evidence of inflammation), Day 37 (DBA/1 mice) | No Mice on day indicated (visual evidence of inflammation), Day 44 (DBA/1 mice) | further results
1 | Nc1nc(N)c2cc(CCc3ccc(C(=O)NC(CCC(=O)O)C(=O)O)cc3)cnc2n1 (stereo not drawn) [5,10-Dideazaaminopterin] | 2.46 | – | – | – | growth inhibition (S. faecium): effective growth inhibitor; growth inhibition (L. casei): effective growth inhibitor
2 | CN(Cc1cnc2nc(N)nc(N)c2n1)c1ccc(C(=O)N[C@@H](CCC(=O)O)C(=O)O)cc1 [MTX, methotrexate, reference compound] | 1.00 | 1/22 | 1/22 | 6/22 | Avg. thickness of rear paws (mm) over days 30-44, Treated (DBA/1 mice; [4]): 2.128 mm; Avg. thickness of rear paws (mm) over days 30-44, Treated (DBA/1 mice; [5]): 2.34 mm; No mice affected on day indicated (visual evidence of inflammation), Day 30 (DBA/1 mice): 1/22; No mice affected on day indicated (visual evidence of inflammation), Day 37 (DBA/1 mice): 1/22; No mice affected on day indicated (visual evidence of inflammation), Day 44 (DBA/1 mice): 6/22; effectiveness of prophylactic regimen (DBA/1 mice; drug begun two days prior to administration of antigen versus starting drug at day 19): more effective than starting drug at day 19
3 | C#CCN(Cc1cnc2nc(N)nc(N)c2c1C)c1ccc(C(=O)NC(CCC(=O)O)C(=O)O)cc1 (stereo not drawn) [5-Me-10-Propargyl (5-Me-10-Prgl-5-DA), 10-propargyl-5-methyl-5-deazaaminopterin] | 21.18 | 3/8 | 3/8 | 2/8 | Ave. thickness of rear paws (mm) over days 30-44, Treated (DBA/1 mice; 30 day measurement (first value in parentheses)): (2.29-2.29) mm; Ave. thickness of rear paws (mm) over days 30-44, Treated (DBA/1 mice; 44 day measurement (second value in parentheses)): (2.29-2.29) mm
4 | Cc1c(CNc2ccc(C(=O)N[C@@H](CCC(=O)O)C(=O)O)s2)cnc2nc(N)nc(N)c12 [Example B', N-[5-[[(2,4-Diamino-5-methylpyrido[2,3-d]pyrimidin-6-yl)methyl]amino]thiophene-2-carbonyl]-L-glutamic Acid] | – | – | – | – | Avg. thickness of rear paws (mm) over days 30-44, Treated (DBA/1 mice; [4]): 2.19 mm; Avg. thickness of rear paws (mm) over days 30-44, Treated (DBA/1 mice; [5]): 2.33 mm; No mice affected on day indicated (visual evidence of inflammation), Day 30 (DBA/1 mice): 0/5; No mice affected on day indicated (visual evidence of inflammation), Day 37 (DBA/1 mice): 2/5; No mice affected on day indicated (visual evidence of inflammation), Day 44 (DBA/1 mice): 2/5
5 | Cc1c(CN(C)c2ccc(C(=O)NC(CCC(=O)O)C(=O)O)cc2)cnc2nc(N)nc(N)c12 (stereo not drawn) [5-Me-10-Me (5-Me-5-DMTX), 5-methyl-5-deazamethotrexate] | 2.79 | 1/8 | 4/8 | 5/8 | –
6 | C#CCN(Cc1cnc2nc(N)nc(N)c2c1)c1ccc(C(=O)NC(CCC(=O)O)C(=O)O)cc1 (stereo not drawn) [5-H-10-Propargyl (10-Prgl-5-DA), 10-propargyl-5-deazaaminopterin] | 1.26 | 3/8 | 2/8 | 6/8 | –
7 | CCCCc1c(CNc2ccc(C(=O)N[C@@H](CCC(=O)O)C(=O)O)cc2)cnc2nc(N)nc(N)c12 [Compound 5-Bu-10-NH] | 7.20 | – | – | – | –
8 | Nc1nc(N)c2cc(CNc3ccc(C(=O)N[C@@H](CCC(=O)O)C(=O)O)cc3)cnc2n1 [L-5-deazaaminopterin] | – | – | – | – | in vivo potency compared with methotrexate (L1210): equipotent with methotrexate; potency as inhibitor compared with methotrexate [2]: equipotent with methotrexate; potency as inhibitor compared with methotrexate [3]: equipotent with methotrexate; in vivo potency compared with methotrexate (P388 leukemia): equipotent with methotrexate
9 | CCc1c(CN(C)c2ccc(C(=O)NC(CCC(=O)O)C(=O)O)cc2)cnc2nc(N)nc(N)c12 (stereo not drawn) [5-Et-10-Me (5-Et-5-DMTX)] | 3.18 | 0/7 | 1/7 | 1/7 | –
10 | CC(Cc1cnc2nc(N)nc(N)c2c1)c1ccc(C(=O)NC(CCC(=O)O)C(=O)O)cc1 (stereo not drawn) [10-Me-5,10-Dideazaaminopterin] | 2.69 | – | – | – | –
11 | CCCc1c(CNc2ccc(C(=O)N[C@@H](CCC(=O)O)C(=O)O)cc2)cnc2nc(N)nc(N)c12 [5-Pr-10-H (5-Pr-5-DA), N-[4-[[(2,4-Diamino-5-propylpyrido[2,3-d]pyrimidin-6-yl)methyl]amino]benzoyl]-L-glutamic Acid] | 1.78 | 0/7 | 0/7 | 0/7 | –
12 | Cc1c(CN(C)c2ccc(C(=O)N[C@@H](CCC(=O)O)C(=O)O)s2)cnc2nc(N)nc(N)c12 [Example C', N-[5-[[(2,4-Diamino-5-methylpyrido[2,3-d]pyrimidin-6-yl)methyl]methylamino]thiophene-2-carbonyl]-L-glutamic Acid] | – | – | – | – | Avg. thickness of rear paws (mm) over days 30-44, Treated (DBA/1 mice; [4]): 2.13 mm; Avg. thickness of rear paws (mm) over days 30-44, Treated (DBA/1 mice; [5]): 2.27 mm; No mice affected on day indicated (visual evidence of inflammation), Day 30 (DBA/1 mice): 0/8; No mice affected on day indicated (visual evidence of inflammation), Day 37 (DBA/1 mice): 1/8; No mice affected on day indicated (visual evidence of inflammation), Day 44 (DBA/1 mice): 3/8
13 | CCc1c(CN(C)c2ccc(C(=O)N[C@@H](CCC(=O)O)C(=O)O)s2)cnc2nc(N)nc(N)c12 [Example D', N-[5-[[(2A-Diamino-5-ethylpyrido[2,3d] -pyrimidin-6-yl)methyl]methylamino]thiophene-2-carbonyl]-L-glutamic Acid] | – | – | – | – | Avg. thickness of rear paws (mm) over days 30-44, Treated (DBA/1 mice; [4]): 2.13 mm; Avg. thickness of rear paws (mm) over days 30-44, Treated (DBA/1 mice; [5]): 2.32 mm; No mice affected on day indicated (visual evidence of inflammation), Day 30 (DBA/1 mice): 2/8; No mice affected on day indicated (visual evidence of inflammation), Day 37 (DBA/1 mice): 4/8; No mice affected on day indicated (visual evidence of inflammation), Day 44 (DBA/1 mice): 7/8
14 | Cc1c(CNc2ccc(C(=O)NC(CCC(=O)O)C(=O)O)cc2)cnc2nc(N)nc(N)c12 (stereo not drawn) [5-Me-10-H (5-Me-5-DA), 5-methyl-5-deazaaminopterin] | 4.39 | – | 2/8 | 6/8 | –
15 | CCc1c(CNc2ccc(C(=O)NC(CCC(=O)O)C(=O)O)cc2)cnc2nc(N)nc(N)c12 (stereo not drawn) [5-Et-10-H (5-Et-5-DA)] | 4.50 | 2/8 | 5/8 | 2/8 | –
16 | C=CCN(Cc1cnc2nc(N)nc(N)c2c1C)c1ccc(C(=O)NC(CCC(=O)O)C(=O)O)cc1 (stereo not drawn) [5-Me-10-Allyl (5-Me-10-Allyl-5-DA)] | – | 0/8 | 0/8 | 0/8 | –
